Reference: patent publication US12338229B2, “Small molecule stimulators of steroid receptor coactivator-3 and methods of their use as cardioprotective and/or vascular regenerative agents” (BAYLOR COLLEGE OF MEDICINE, priority 2018, dated 2025)

Legend:
[1] = system: chorioallantoic membrane (CAM) of chicken eggs; experiment: Chick egg CAM angiogenesis assay, topical drug; format: in vivo; conditions: 0.6 μM applied directly to chick eggs
Protocol: Angiogenesis assay for small molecule stimulator treatments. Five to seven day old specific-pathogen-free (SPF) certified fertilized chicken eggs (white leghorn) were used to access the chorioallantoic membrane (CAM). The total vessel area on the CAM was measured using images obtained prior to application of the drug. MCB-613 (100 μL) at a concentration of 0.6 μM was topically applied onto the surface of the CAM. The vessel area on the CAM was monitored on a daily basis following daily application of the drug. Vehicle controls were maintained throughout the experiment. Treatments were continued for four days at the end of which an image thresholding method (ImageJ) was used to quantify total vessel area on the CAM. Percent growth in vessel area was compared for control and treated eggs. n=6 eggs per condition. This experiment was repeated three times.

[2] = Toxicity profile in vitro and in vivo
[3] = system: bone marrow granulocytes; experiment: qPCR of bone marrow granulocytes post-MI; format: in vivo, mice; conditions: bone marrow granulocytes 24 hours post-MI
Protocol: RNA isolation and qPCR. Total RNA was isolated from cells using the Qiagen RNA isolation kit. cDNA was prepared with the VILO master mix reagent. qPCR analysis was carried out using the Taqman kit with primers for Tlr7, Lcn2 and 18s.
Granulocyte isolation. Bone marrow cells were isolated from the rear legs of mice treated with control or MCB-613 for 24 hours. Rear legs were removed and placed in ice-cold Hanks balanced salt solution (HBSS) (without Ca/Mg) plus 2% FBS. Both ends of the bone were cut and the bone marrow was flushed with ice cold HBSS with 2% FBS using a 26G needle. Clumps were broken up with an 18G needle and filtered through a 70 μm filter and centrifuged at 400 g for 10 min at 4° C. The pellet was suspended in RBC lysis buffer (BD Biosciences Pharmigen; San Diego, CA) and incubated at room temperature for two minutes. HBSS buffer (8 mL) was added and spun at 400 g for 10 mins at 4° C. Viable cells were counted by trypan blue exclusion and bone marrow granulocytes were isolated using a mouse Neutrophil Isolation Kit from Miltenyi Biotec (Bergisch Gladbach, Germany).

[4] = system: chorioallantoic membrane (CAM) of chicken eggs; experiment: CAM angiogenesis assay with drug treated mouse embryonic fibroblasts; format: in vivo; conditions: MEFs pre-treated with 0.6 μM for 24 hours
Protocol: Angiogenesis Assay with drug treated mouse embryonic fibroblasts (MEFs). Five to seven day old SPF certified fertilized chicken eggs (white leghorn) were used to access the chorioallantoic membrane (CAM). Mouse embryonic fibroblasts (MEFs) were treated with 0.6 μM MCB-613 for 24 hours. Post treatment, two million MEFs were suspended in 60 μL of PBS containing magnesium and calcium and 40 μL of Matrigel (2M/egg) (Corning Inc.; Corning, NY). The MEFs were then mixed well by pipetting and transferred to the surface of the CAM. The vessel area on the CAM was monitored on a daily basis. Vehicle controls were maintained throughout the experiment. MEFs were allowed to grow on the CAM surface for four days at the end of which an image thresholding method (ImageJ) was used to quantify total vessel area on the CAM. Percent growth in vessel area was then compared across control and treated eggs (MEF treated versus untreated). n=6 eggs per condition.

[5] = system: non-cardiomyocyte cells of hearts post-MI; experiment: Single cell transcriptional profiling of non-cardiomyocytes post-MI; format: in vivo, mice
Protocol: Isolation of cardiac cells for single cell transcription profiling. Mice were placed under the surgical plane of anesthesia before cervical dislocation. The hearts were removed and cells were isolated by Langendorff retrograde perfusion of calcium-free pH 7.4 Tyrodes solution (130 mM NaCl, […], 0.5 mM MgCl, 0.33 mM NaH2PO4, 0.25 mm HEPES, 22 mM glucose) with collagenase, 1 mg/mL for 15 minutes. The hearts were then removed from the apparatus, and finely minced in the same Tyrodes buffer with 15 mg/mL bovine serum albumin (BSA) before trituration with a glass pipette. Cardiomyocytes were then pelleted by differential centrifugation, 300 RPM for 3 minutes. The supernatant containing the noncardiomyocyte population of cells was then filtered through a 70 micron filter and pelleted at 750 G, and resuspended in 1.1 mL 2% fetal bovine serum (FBS) in phosphate buffered saline (PBS). 0.1 mL was removed for the “no stain control” for fluorescence-activated cell sorting (FACS). The other 1 mL was incubated with 4 ug/mL Calcein Blue and 10 microM DyeCycle Ruby and incubated at 37° C. for 10 minutes. The cells were then spun down at 600G, and resuspended in 0.5 mL 2% FBS/PBS containing Sytox Green (30 nM). […] The cells were then pelleted and resuspended in 100 uL 0.4% FBS in PBS, counted, and then flowed through the 10×Genomics Chromium system for single cell transcriptomic profiling.
Isolation of cardiac cells. […] Then, 0.1 mL of the mixture was removed for the “no stain control” for fluorescence-activated cell sorting (FACS). […] The cells were then pelleted and resuspended in 100 μL 0.4% FBS in PBS, counted, and passed through the 10× Genomics Chromium system.
Single-cell RNA-sequencing. […] To identify cell clusters and differentially expressed genes, the Cell Ranger results were analyzed with Seurat suite version 3.0.0 implemented in R (version 3.4.3). Cells with <200 or >5,000 unique genes expressed or >25% of reads mapping to mitochondria were removed as quality control measure. […]

## CCC1C/C(=C\c2cccnc2)C(=O)/C(=C/c2cccnc2)C1 (stereo not shown) [MCB-613]
[1]
  angiogenesis (vessel area on CAM): stimulated angiogenesis in vivo
[2]
  toxicity profile: low toxicity profile in vitro and in vivo
[3]
  Tlr7 and Lcn2 mRNA expression in granulocytes: Increased expression of Tlr7 and Lcn2
[4]
  angiogenesis (vessel area on CAM): promoted robust angiogenesis
[5]; 10 weeks post-MI
  endothelial cell growth: stimulates endothelial cell growth of two distinct endothelial cell populations
[5]; 12 weeks post-MI
  changes in non-cardiomyocyte cell number: macrophage cluster 1 and B lymphocytes decreased in number while epicardial cells, NK/T lymphocytes, fibroblasts, and endothelial cells, including lymphatic cells, were increased in cell number
  granulocyte functions (gene set enrichment): suppresses inflammatory granulocyte functions
